Experiments:
Format in all cases: cell-based, mouse
D1 cells [1] = test: Differential gene expression analysis (Mu6500 GeneChip) in LPS- and TNF-α-stimulated versus unstimulated D1 cells; set-up: key: NC: No change in the level of expression; I: induced (detected only in stimulated cells); U: up-regulated; D: down-regulated; S: suppressed (detected only in unstimulated cells); details: no asterisk=fold change, *=AvgDiff after stimulation, **=AvgDiff in baseline
Experimental: (§1) Cells and reagents. The D1 cells were derived from murine splenic DC and maintained in vitro in IMDM supplemented with 30% R1 conditional medium as previously described. LPS (Escherichia coli sero- type 026:B6) was purchased from Sigma Chemical Co. and used at 10 μg/ml. Muriner TNF-α (Genetech Inc., San Francisco. Calif.) was used at 100 U/ml. Cells were grown and harvested at the same time.
RNA extraction, amplification and labeling for hybridization. Antisense cRNA was prepared following Affymetrix (Santa Clara, Calif.) recommendations. Briefly, mRNA was directly extracted from frozen pellets using the DIRECT OLIGOTEX KIT (i.e., column chromatography kit for mRNA purification) from Qiagen (Chatsworth, Calif.) and converted to double-stranded cDNA using a modified oligo dT primer with a 5′T7 RNA polymerase promoter sequence and the SUPER-SCRIPT CHOICE SYSTEM (i.e., reverse transcriptase system) for cDNA synthesis (Life Technologies, Gaithesbourg, Md.). Double-stranded cDNA (0.5 μg) was transcribed to cRNA with the T7 RNA polymerase (T7 MEGASCRIPT KIT (i.e., phage specific in vitro transcription kit); Ambion, Austin, Tex.) in the presence of a mixture of unlabeled ATP, CTP, GTP, UTP and biotin-labeled CTP and UTP (ENZO Diagnostics, Farmingdale, N.Y.). cRNA was purified on an affinity column (RNEASY (i.e., a RNA purification column); Qiagen).
Probe array hybridization and scanning. The Mu6500 GENECHIP (i.e., DNA microarray) array consists of a set of four individual chips, A-D, collectively representing 6,500 murine genes and ESTs. Analysis of the D1 samples was performed by hybridizing the cRNA to the GENECHIP (i.e., DNA microarray) arrays A-D. Probe array hybridizations were carried out as described. cRNA was fragmented to an average size of 50-200 bases, by incubation for 30 min at 94° C. in 40 mM Tris-acetate pH 8.1, 100 mM potassium acetate and 30 mM magnesium acetate.
Samples were then diluted in the hybridization solution (1 M NaCI, 10 mM Tris pH7.6, 0.005% Triton X-100, 0.1 mg/ml herring sperm DNA, BioB-, BioC-, BioD-, cre- control cRNA at a concentration of 1.5, 5, 25, 100 pM, respectively) at a final concentration of 0.05 μg/ml heated at 94° C. for 5 min and placed in the hybridization cartridge (200 μl/chip). Hybridizations were performed at 40° C. for 16 h. Following hybridization the chips were rinsed with 6× SSPE-T (0.9 M NaCI, 60 mM NaH2PO4, 6 mM EDTA, 0.005% Triton X-100 adjusted to pH 7.6) and 0.5× SSPE-T and stained by incubating with 2 μg/ml streptavidin-phycoerythrin (Molecular Probes, Eugene, Oreg.) and 1 mg/ml acetylated BSA (Sigma, St. Louis, Mo.).
The arrays were read at a resolution of 7.5 μm. using a confocal scanner (Affymetrix) and analyzed with the GENECHIP 3.3 GENE EXPRESSION ANALYSIS PROGRAM (i.e., gene expression analysis software) (Affymetrix).
Gene expression analysis was performed on immature, transitional (6 h LPS and TNF-α-activated) and mature (18 h LPS- and TNF-α-activated) D1 cells using GENECHIP (i.e., DNA microarray) oligonucleotide probe arrays representing approximately 6,500 distinct mouse genes and ESTs. The 6,500 probe sets are subdivided in four individual chips, A-D, each containing oligonucleotide probes for about 1,600 genes and ESTs. The hybridized arrays were analyzed using the GENECHIP 3.3 GENE EXPRESSION ANALYSIS PROGRAM (i.e., gene expression analysis software). Data analysis protocols, sensitivity and quantitative aspects of the method have been previously precisely described. In brief, gene probes are represented by 20 perfectly matched 20-mer oligonucleotides (PM) and 20 control oligonucleotides with a single mismatch (MM). Gene expression levels are defined averaging the differences (AvgDiff) between the PM and MM of every probe pair over the entire probe set:
An AvgDiff of 20 approximates the lower value of fluorescence intensity for detected genes. […]

[2] = tested on: DC (D1, D8, BMDC/RAG2−/−); test: IL-2 production by DC after stimulation in vitro (IL-2 ELISA of supernatant); details: splenic (D1) and bone marrow-derived DC (D8, BMDC/RAG2−/−), long- and short-term lines
Experimental: Antibodies and Reagents. LPS (E. Coli 026:B6, used at 10 μg/ml) and zymosan (used at 10 μg/ml) were obtained from Sigma Chem. (St. Louis, Mo.). rTNF, (San Francisco) and rIL-1. (Genzyme, Cambridge Mass.) were used at 100 U/ml and 10 μg/ml respectively. IFN was kindly provided by Schering-Plough (Dardilli, Fr.) and used at 1000 U/ml. CpG ([…])(SEQ ID NO. 5) and CpG control ([…]) (SEQ ID NO. 6) oligos were purchased from Life Technologies and used at a concentration of 1 µM. PE-conjugated anti-IL-2, PE-conjugated rat Isotype control, biotinilated anti-CD8α and FITC-conjugated anti-CD11c monoclonal antibodies were purchased from Pharmingen. Quantum-red-conjugated streptavidin was obtained from Sigma. Anti-I-A^d/I-E^d mAb (clone M5 /114, rat IgG2b) was kindly provided by Dr. A. Ager (NIMR, London, UK). FITC-conjugated anti-rat was from Jackson ImmunoResearch (West Grove, Pa.). Anti-CD40 antibody [clone FGK45 (10)] was used at a concentration of 20 μg/ml and crosslinked with a monoclonal anti-rat antibody (10 μg/ml, PharMingen).
DC and culture medium. D1 and D8.1 long term DC were cultured in IMDM (Sigma, St. Louis, Mo.) containing 10% heat-inactivated fetal bovine serum (GIBCO), 100 IU penicillin, 100 μg/ml streptomycin, 2 mM L-glutamine (all from Sigma), and 50 μM 2-mercaptoethanol (complete IMDM) with 30% supernatant from R1 medium [supernatant from NIH3T3 fibroblasts transfected with GM-CSF].
Fresh BMDCRAG2−/− were derived from RAG2−/− BALB/c or C57BL/6 bone marrow cells. Usually bone marrow cells cultured for two days and frozen. BMDCRAG2−/− were obtained from defrost cells after 7 days of culture in medium containing 10% of supernatant of GM-CSF transduced B16 tumor cells. BMDCRAG2−/− were used for activation only if they were immature, as judged by low B7.2 and CD40 expression.
IL-2 ELISA. IL-2 ELISA was performed using the DuoSet kit (R and D, Minneapolis, Minn.) and following the manufacturer recommendations. […]

D1 cells [3] = test: Growth of D1 cells after stimulation (number of viable cells)
Source text: D1 cells were stimulated either with LPS or TNF-α for the indicated time. The number of viable cells at the indicated time points is expressed as percentage of seeded cells. LPS, LPS-stimulated cells; TNF-α, TNF-α-stimulated cells; NS, non-stimulated cells. Standard deviations of five independent experiments are reported.
as §1

tumor necrosis factor [TNFα]
1AP3 (Y08026) gene expression, stimulated versus unstimulated D1 cells (D1 cells [1]; 6 h): NC | BTG1 (L16846) gene expression, stimulated versus unstimulated D1 cells (D1 cells [1]; 6 h): NC | BTG3 (Z72000) gene expression, stimulated versus unstimulated D1 cells (D1 cells [1]; 6 h): NC | CD14 (M34510) gene expression, stimulated versus unstimulated D1 cells (D1 cells [1]; 6 h): NC | CD37 (U18372) gene expression, stimulated versus unstimulated D1 cells (D1 cells [1]; 6 h): NC | CD40 (M833312) gene expression, stimulated versus unstimulated D1 cells (D1 cells [1]; 6 h): NC | CYL-1 (M64403) gene expression, stimulated versus unstimulated D1 cells (D1 cells [1]; 6 h): NC | Clqα (X58861) gene expression, stimulated versus unstimulated D1 cells (D1 cells [1]; 6 h): NC | EtAI (X16151) gene expression, stimulated versus unstimulated D1 cells (D1 cells [1]; 6 h): NC | F4-80 (X93328) gene expression, stimulated versus unstimulated D1 cells (D1 cells [1]; 6 h): NC | GAS (U19860) gene expression, stimulated versus unstimulated D1 cells (D1 cells [1]; 6 h): NC | H-2Mα (U35323) gene expression, stimulated versus unstimulated D1 cells (D1 cells [1]; 6 h): NC | H-2Mβ1 (U35323) gene expression, stimulated versus unstimulated D1 cells (D1 cells [1]; 6 h): NC | I-Aα (K01923) gene expression, stimulated versus unstimulated D1 cells (D1 cells [1]; 6 h): NC | I-Aβ (V01527) gene expression, stimulated versus unstimulated D1 cells (D1 cells [1]; 6 h): NC | IL-6 (J03783) gene expression, stimulated versus unstimulated D1 cells (D1 cells [1]; 6 h): NC | IL-12p40 (M86671) gene expression, stimulated versus unstimulated D1 cells (D1 cells [1]; 6 h): NC | IL-IRA (M64404) gene expression, stimulated versus unstimulated D1 cells (D1 cells [1]; 6 h): NC | Jaw1 (U10484) gene expression, stimulated versus unstimulated D1 cells (D1 cells [1]; 6 h): NC | Ki-67 (X82786) gene expression, stimulated versus unstimulated D1 cells (D1 cells [1]; 6 h): NC | MIP-1α (M73061) gene expression, stimulated versus unstimulated D1 cells (D1 cells [1]; 6 h): NC | MIP-2 (X53798) gene expression, stimulated versus unstimulated D1 cells (D1 cells [1]; 6 h): NC | Macrostatin (X68273) gene expression, stimulated versus unstimulated D1 cells (D1 cells [1]; 6 h): NC | OX40L (U12763) gene expression, stimulated versus unstimulated D1 cells (D1 cells [1]; 6 h): NC | PA28 (U60329) gene expression, stimulated versus unstimulated D1 cells (D1 cells [1]; 6 h): NC | RCK (D50494) gene expression, stimulated versus unstimulated D1 cells (D1 cells [1]; 6 h): NC | TAP-1cas (M55637) gene expression, stimulated versus unstimulated D1 cells (D1 cells [1]; 6 h): NC | TIS (D86344) gene expression, stimulated versus unstimulated D1 cells (D1 cells [1]; 6 h): NC | TMP (U25633) gene expression, stimulated versus unstimulated D1 cells (D1 cells [1]; 6 h): NC | TSA1 (U47737) gene expression, stimulated versus unstimulated D1 cells (D1 cells [1]; 6 h): NC | c-1AP-I (L49433) gene expression, stimulated versus unstimulated D1 cells (D1 cells [1]; 6 h): NC | cyclin A (Z26580) gene expression, stimulated versus unstimulated D1 cells (D1 cells [1]; 6 h): NC | cyclin B1 (X64713) gene expression, stimulated versus unstimulated D1 cells (D1 cells [1]; 6 h): NC | cyclin B2 (X66032) gene expression, stimulated versus unstimulated D1 cells (D1 cells [1]; 6 h): NC | cyclin D2 (M83749) gene expression, stimulated versus unstimulated D1 cells (D1 cells [1]; 6 h): NC | serum amyloid (X03505) gene expression, stimulated versus unstimulated D1 cells (D1 cells [1]; 6 h): NC | βig-h3 (L19932) gene expression, stimulated versus unstimulated D1 cells (D1 cells [1]; 6 h): NC | BTG1 (L16846) gene expression, stimulated versus unstimulated D1 cells (D1 cells [1]; 18 h): NC | CD14 (M34510) gene expression, stimulated versus unstimulated D1 cells (D1 cells [1]; 18 h): NC | CD37 (U18372) gene expression, stimulated versus unstimulated D1 cells (D1 cells [1]; 18 h): NC | CYL-1 (M64403) gene expression, stimulated versus unstimulated D1 cells (D1 cells [1]; 18 h): NC | Clqα (X58861) gene expression, stimulated versus unstimulated D1 cells (D1 cells [1]; 18 h): NC | F4-80 (X93328) gene expression, stimulated versus unstimulated D1 cells (D1 cells [1]; 18 h): NC | GAS (U19860) gene expression, stimulated versus unstimulated D1 cells (D1 cells [1]; 18 h): NC | H-2Mα (U35323) gene expression, stimulated versus unstimulated D1 cells (D1 cells [1]; 18 h): NC | H-2Mβ1 (U35323) gene expression, stimulated versus unstimulated D1 cells (D1 cells [1]; 18 h): NC | I-Aα (K01923) gene expression, stimulated versus unstimulated D1 cells (D1 cells [1]; 18 h): NC | I-Aβ (V01527) gene expression, stimulated versus unstimulated D1 cells (D1 cells [1]; 18 h): NC | IL-6 (J03783) gene expression, stimulated versus unstimulated D1 cells (D1 cells [1]; 18 h): NC | IL-12p40 (M86671) gene expression, stimulated versus unstimulated D1 cells (D1 cells [1]; 18 h): NC | IL-IRA (M64404) gene expression, stimulated versus unstimulated D1 cells (D1 cells [1]; 18 h): NC | MIP-1α (M73061) gene expression, stimulated versus unstimulated D1 cells (D1 cells [1]; 18 h): NC | MIP-2 (X53798) gene expression, stimulated versus unstimulated D1 cells (D1 cells [1]; 18 h): NC | Macrostatin (X68273) gene expression, stimulated versus unstimulated D1 cells (D1 cells [1]; 18 h): NC | OX40L (U12763) gene expression, stimulated versus unstimulated D1 cells (D1 cells [1]; 18 h): NC | PA28 (U60329) gene expression, stimulated versus unstimulated D1 cells (D1 cells [1]; 18 h): NC | RCK (D50494) gene expression, stimulated versus unstimulated D1 cells (D1 cells [1]; 18 h): NC | TAP-1cas (M55637) gene expression, stimulated versus unstimulated D1 cells (D1 cells [1]; 18 h): NC | TIS (D86344) gene expression, stimulated versus unstimulated D1 cells (D1 cells [1]; 18 h): NC | TSA1 (U47737) gene expression, stimulated versus unstimulated D1 cells (D1 cells [1]; 18 h): NC | cyclin A (Z26580) gene expression, stimulated versus unstimulated D1 cells (D1 cells [1]; 18 h): NC | cyclin D2 (M83749) gene expression, stimulated versus unstimulated D1 cells (D1 cells [1]; 18 h): NC | mMCM2 (D86725) gene expression, stimulated versus unstimulated D1 cells (D1 cells [1]; 18 h): NC | properdin (X12905) gene expression, stimulated versus unstimulated D1 cells (D1 cells [1]; 18 h): NC | βig-h3 (L19932) gene expression, stimulated versus unstimulated D1 cells (D1 cells [1]; 18 h): NC | induction of IL-2 production/secretion by DC [2]: none of the inflammatory cytokines, used individually or added simultaneously to DC cultures, were able to promote IL-2 secretion | doubling time of activated D1 cells (D1 cells [3]): 130 h | growth arrest of D1 cells (D1 cells [3]; after stimulation): only a strong proliferation slow down but not a definitive growth arrest

IL-1 β: inflammatory cytokine (Genzyme)
induction of IL-2 production/secretion by DC [2]: none of the inflammatory cytokines, used individually or added simultaneously to DC cultures, were able to promote IL-2 secretion

CpG: oligo DNA containing the unmethylated CpG motif, TCCATGACGTTCCTGATGCT (SEQ ID NO. 5), recognized by TLR9 (listed as DNA, further chemistry not given here)
induction of IL-2 production/secretion by DC [2]: efficient in stimulating DC to secrete IL-2

— patent US7442547B2, “Dendritic cells and the uses thereof in screening cellular targets and potential drugs” (Sekmed, S.R.L., priority 2001, dated 2008)
